This passage reports EC50 results from patent publication US6949556B2, “Acylated 1,2,3,4-tetrahydronaphthyl amines and their use as pharmaceutical agents” (Aventis Pharma Deutschland GmbH, priority 2001, dated 2005).

This assay concerns eNOS promoter. Description: Activation of eNOS transcription (eNOS promoter firefly luciferase reporter). It is filed as cell-based. To be noted: EC50 of transcription induction ratio (TIR) vs compound concentration, determined graphically; stably transfected human endothelial cell line, 18 h incubation. As to the method:
Activation of eNOS transcription was measured as described in detail in Li et al. “Activation of protein kinase C alpha and/or epsilon enhances transcription of the human endothelial nitric oxide synthase gene”, Mol. Pharmacol. 1998; 53: 630-637. Briefly, a 3.5 kB long fragment 5′ of the starting codon of the eNOS gene was cloned, sequenced and cloned in firefly luciferase expression plasmids to monitor activation of the eNOS promoter by reporter gene activity. A human endothelial cell line stable transfected and expressing this promoter-reporter construct was used for compound testing. Cells were incubated for 18 h with compounds.
All compounds were dissolved in sterile DMSO. A final concentration of 0.5% DMSO in complete medium was allowed. Induction of reporter gene expression in these cells was measured using a standard luciferase assay system (Promega, Cat. No E150) according to the manufacturer's instructions. Luciferase induction in cells incubated with compounds were compared to those incubated with solvent alone. The ratio of both activities (transcription induction ratio, TIR) was plotted as a function of compound concentration. Typically, TIR values started at low concentrations at a ratio of 1, indicating no compound effect, and extended up to a maximum TIR value TIR(max) which indicates the increase of the eNOS transcription. EC50 values of transcription induction ratios as a function of compound concentration were determined graphically.
For orientation: Reporter assays use an easily measured gene product as a stand-in for the process of interest.

For orientation: EC50 means the concentration needed to bring the measured effect to its halfway point. For `O=C(NC1CCc2ccccc2C1)c1ccc(F)cc1` (stereo not drawn) [Compound 1, 4-Fluoro-N-(1,2,3,4-tetrahydro-naphth-2-yl)-benzamide], the 50% effective concentration (EC50) turned out to be 2.2 µM.

Regarding `O=C(N[C@@H]1CCc2cccc(Br)c2C1)c1ccc(F)cc1` [Compound 4, (R)-N-(8-Bromo-1,2,3,4-tetrahydro-naphth-2-yl)-4-fluoro-benzamide], the EC50 is over 30 µM.

As to `O=C(N[C@H]1CCc2cccc(Br)c2C1)c1ccc(F)cc1` [Compound 5, (S)-N-(8-Bromo-1,2,3,4-tetrahydro-naphth-2-yl)-4-fluoro-benzamide], the half-maximal effective concentration (EC50) worked out at 10 µM.

On to `COc1cccc2c1CC[C@@H](NC(=O)c1ccc(F)cc1)C2` [Compound 6, (R)-N-(5-Methoxy-1,2,3,4-tetrahydro-naphth-2-yl)-4-fluoro-benzamide], for which the half-maximal effective concentration (EC50) amounted to 1.5 µM.

`COc1cccc2c1CC[C@H](NC(=O)c1ccc(F)cc1)C2` [Compound 7, (S)-N-(5-Methoxy-1,2,3,4-tetrahydro-naphth-2-yl)-4-fluoro-benzamide]: the EC50 amounted to 6 µM.

For `CN(C)c1cccc(C(=O)N[C@@H]2CCc3ccccc3C2)c1` [Compound 10, 3-Dimethylamino-N-(R)-1,2,3,4-tetrahydro-naphthalen-2-yl-benzamide], the EC50 was 9.56 µM.

For `CN(C)c1cccc(C(=O)N[C@H]2CCc3ccccc3C2)c1` [Compound 11, 3-Dimethylamino-N-(S)-1,2,3,4-tetrahydro-naphthalen-2-yl-benzamide], the EC50 is 12.8 µM.

Regarding `O=C(N[C@@H]1CCc2ccccc2C1)c1ccc(Cl)nc1` [Compound 14, 6-Chloro-N-(R)-1,2,3,4-tetrahydro-naphthalen-2-yl-nicotinamide], the 50% effective concentration (EC50) was 5.93 µM.

As to `Nc1ncccc1C(=O)N[C@@H]1CCc2ccccc2C1` [Compound 17, 2-Amino-N-(R)-1,2,3,4-tetrahydro-naphthalen-2-yl-nicotinamide], the EC50 was determined as 1.96 µM.

For the compound `Cc1ccc(C(=O)N[C@@H]2CCc3ccccc3C2)cn1` [Compound 19, 6-Methyl-N-(R)-1,2,3,4-tetrahydro-naphthalen-2-yl-nicotinamide], the EC50 was determined as 10.9 µM.

In the case of `Cc1ccc(C(=O)N[C@H]2CCc3ccccc3C2)cn1` [Compound 20, 6-Methyl-N-(S)-1,2,3,4-tetrahydro-naphthalen-2-yl-nicotinamide], the EC50 is 24.7 µM.

For the compound `O=C(N[C@H]1CCc2ccccc2C1)c1cccc2[nH]ccc12` [Compound 22, 1H-Indole-4-carboxylic acid-N-(S)-(1,2,3,4-tetrahydro-naphthalen-2-yl)-amide], the EC50 is 8.82 µM.

Regarding `O=C(N[C@@H]1CCc2ccccc2C1)c1ccc2[nH]cnc2c1` [Compound 23, 1H-Benzoimidazole-5-carboxylic acid N-(R)-(1,2,3,4-tetrahydro-naphthalen-2-yl)-amide], the concentration for a half-maximal effect (EC50) was determined as 11.5 µM.

As for `O=C(N[C@@H]1CCc2ccccc2C1)c1ccc2[nH]nnc2c1` [Compound 25, 1H-Benzotriazole-5-carboxylic acid N-(R)-(1,2,3,4-tetrahydro-naphthalen-2-yl)-amide], the EC50 stood at 4.55 µM.

Take `O=C(N[C@H]1CCc2ccccc2C1)c1ccc2[nH]nnc2c1` [Compound 26, 1H-Benzotriazole-5-carboxylic acid N-(S)-(1,2,3,4-tetrahydro-naphthalen-2-yl)-amide]: the EC50 was determined as 15.1 µM.

As to `Cc1ncccc1C(=O)N[C@@H]1CCc2ccccc2C1` [Compound 27, 2-Methyl-N-(R)-1,2,3,4-tetrahydro-naphthalen-2-yl-nicotinamide], the concentration giving a half-maximal response (EC50) was determined as 0.18 µM.

With `Cc1nc(C)c(C(=O)N[C@@H]2CCc3ccccc3C2)s1` [Compound 29, 2,4-Dimethyl-thiazole-5-carboxylic acid N-(R)-(1,2,3,4-tetrahydro-naphthalen-2-yl)-amide], the half-maximal effective concentration (EC50) turned out to be 10.5 µM.

On to `Cc1nc(C)c(C(=O)N[C@H]2CCc3ccccc3C2)s1` [Compound 30, 2,4-Dimethyl-thiazole-5-carboxylic acid N-(S)-(1,2,3,4-tetrahydro-naphthalen-2-yl)-amide], for which the EC50 came to 81.8 µM.

Regarding `Cc1c(C(=O)N[C@@H]2CCc3ccccc3C2)cnn1-c1ccccc1` [Compound 31, 5-Methyl-1-phenyl-1H-pyrazole-4-carboxylic acid N-(R)-(1,2,3,4-tetrahydro-naphthalen-2-yl)-amide], the EC50 stood at 10.9 µM.

In the case of `Cc1c(C(=O)N[C@H]2CCc3ccccc3C2)cnn1-c1ccccc1` [Compound 32, 5-Methyl-1-phenyl-1H-pyrazole-4-carboxylic acid N-(S)-(1,2,3,4-tetrahydro-naphthalen-2-yl)-amide], the EC50 came out at 1.13 µM.

For `O=C(N[C@@H]1CCc2ccccc2C1)c1cnn(-c2ccc(Cl)cc2)c1C(F)(F)F` [Compound 33, 1-(4-Chloro-phenyl)-5-trifluoromethyl-1H-pyrazole-4-carboxylic acid N-(R)-(1,2,3,4-tetrahydro-naphthalen-2-yl)-amide], the concentration for a half-maximal effect (EC50) is 7 µM.

Take `O=C(N[C@H]1CCc2ccccc2C1)c1cnn(-c2ccc(Cl)cc2)c1C(F)(F)F` [Compound 34, 1-(4-Chloro-phenyl)-5-trifluoromethyl-1H-pyrazole-4-carboxylic acid N-(S)-(1,2,3,4-tetrahydro-naphthalen-2-yl)-amide]: the EC50 is 9.97 µM.

`Cc1cnc(C(=O)N[C@@H]2CCc3ccccc3C2)cn1` [Compound 35, 5-Methyl-pyrazine-2-carboxylic acid N-(R)-(1,2,3,4-tetrahydro-naphthalen-2-yl)-amide]: the EC50 is 14.9 µM.

As for `Cc1cnc(C(=O)N[C@H]2CCc3ccccc3C2)cn1` [Compound 36, 5-Methyl-pyrazine-2-carboxylic acid N-(S)-(1,2,3,4-tetrahydro-naphthalen-2-yl)-amide], the EC50 amounted to 0.33 µM.

For the compound `Cc1ccc(C(=O)N[C@@H]2CCc3ccccc3C2)c(Cl)n1` [Compound 39, 2-Chloro-6-methyl-N-(R)-1,2,3,4-tetrahydro-naphthalen-2-yl-nicotinamide], the EC50 is 28.3 µM.

As to `Cc1ccc(C(=O)N[C@H]2CCc3ccccc3C2)c(Cl)n1` [Compound 40, 2-Chloro-6-methyl-N-(S)-1,2,3,4-tetrahydro-naphthalen-2-yl-nicotinamide], the EC50 was found to be 13.6 µM.

Take `Cc1nc(-c2ccccc2)sc1C(=O)N[C@@H]1CCc2ccccc2C1` [Compound 41, 4-Methyl-2-phenyl-thiazole-5-carboxylic acid N-(R)-(1,2,3,4-tetrahydro-naphthalen-2-yl)-amide]: the half-maximal effective concentration (EC50) was 20.4 µM.

On to `Cc1nc(-c2ccccc2)sc1C(=O)N[C@H]1CCc2ccccc2C1` [Compound 42], for which the EC50 worked out at 16 µM.

In the case of `Cc1cc(C)c(C(=O)N[C@@H]2CCc3ccccc3C2)c(N)n1` [Compound 43, 2-Amino-4,6-dimethyl-N-(R)-1,2,3,4-tetrahydro-naphthalen-2-yl-nicotinamide], the EC50 was 20.6 µM.

As to `Cc1nc(C(F)(F)F)c(C(=O)N[C@@H]2CCc3ccccc3C2)s1` [Compound 45, 2-Methyl-4-trifluoromethyl-thiazole-5-carboxylic acid N-(R)-(1,2,3,4-tetrahydro-naphthalen-2-yl)-amide], the 50% effective concentration (EC50) is 0.29 µM.

As for `Cc1nc(C(F)(F)F)c(C(=O)N[C@H]2CCc3ccccc3C2)s1` [Compound 46, 2-Methyl-4-trifluoromethyl-thiazole-5-carboxylic acid-N-(S)-(1,2,3,4-tetrahydro-naphthalen-2-yl)-amide], the concentration for a half-maximal effect (EC50) amounted to 0.41 µM.

On to `O=C(N[C@@H]1CCc2ccccc2C1)c1cc2sccc2nc1C(F)(F)F` [Compound 47, 5-Trifluoromethyl-thieno[3,2-b]pyridine-6-carboxylic acid-N-(R)-(1,2,3,4-tetrahydro-naphthalen-2-yl)-amide], for which the EC50 turned out to be 35.2 µM.

With `O=C(N[C@@H]1CCc2ccccc2C1)c1ccc2cc[nH]c2c1` [Compound 48, 1H-Indole-6-carboxylic acid N-(R)-(1,2,3,4-tetrahydro-naphthalen-2-yl)-amide], the EC50 is 15.6 µM.

For the compound `O=C(N[C@@H]1CCc2ccccc2C1)c1ccc(C(F)(F)F)nc1` [Compound 50, N-(R)-1,2,3,4-Tetrahydro-naphthalen-2-yl-6-trifluoromethyl-nicotinamide], the EC50 is 24.6 µM.

`O=C(N[C@H]1CCc2ccccc2C1)c1ccc(C(F)(F)F)nc1` [Compound 51, N-(S)-1,2,3,4-Tetrahydro-naphthalen-2-yl-6-trifluoromethyl-nicotinamide]: the concentration giving a half-maximal response (EC50) is 1.6 µM.

Consider `Cc1nc2cc(C(=O)N[C@@H]3CCc4ccccc4C3)ccc2[nH]1` [Compound 52, 2-Methyl-1H-benzoimidazole-5-carboxylic acid N-(R)-(1,2,3,4-tetrahydro-naphthalen-2-yl)-amide], for which the EC50 turned out to be 24.4 µM.

Regarding `Cc1nc(C(F)(F)F)ccc1C(=O)N[C@@H]1CCc2ccccc2C1` [Compound 54, 2-Methyl-N-(R)-1,2,3,4-tetrahydro-naphthalen-2-yl-6-trifluoromethyl-nicotinamide], the EC50 is 16.3 µM.

As for `Cc1nc(C(F)(F)F)ccc1C(=O)N[C@H]1CCc2ccccc2C1` [Compound 55, 2-Methyl-N-(S)-1,2,3,4-tetrahydro-naphthalen-2-yl-6-trifluoromethyl-nicotinamide], the half-maximal effective concentration (EC50) was 1.1 µM.

As for `N#Cc1ccc(C(=O)N[C@@H]2CCc3ccccc3C2)cn1` [Compound 56, 6-Cyano-N-(R)-1,2,3,4-tetrahydro-naphthalen-2-yl-nicotinamide], the EC50 turned out to be 2.75 µM.
